Laboratory results from patent publication US11773140B2, “Gram-negative lysin-antimicrobial peptide (AMP) polypeptide constructs, lysins, isolated polynucleotides encoding same and uses thereof in human serum” (priority 2018, dated 2023).
Read-outs that look alike come from different tables or passages of the source.

Tests used:
Type in all cases: cell-based, Pseudomonas aeruginosa
[1] = system: carbapenem-resistant P. aeruginosa isolate PA19
Description: (§1) Such resensitization may be determined by combining the present lysins or lysin-AMP polypeptide constructs with an antibiotic in a checkerboard assay as described herein. Antibiotic-resistant bacteria, such as carbapenem-resistant P. aeruginosa, are added to the lysin or lysin-AMP polypeptide construct combination. […] See Clinical and Laboratory Standards Institute (CLSI), CLSI. […] M100 Performance Standards for Antimicrobial Susceptibility Testing; 29th Edition. Clinical and Laboratory Standards Institute, Wayne, Pa.
(§2) Up to seven carbapenem-resistant isolates were assessed. […] See Clinical and Laboratory Standards Institute (CLSI), CLSI. […] M100 Performance Standards for Antimicrobial Susceptibility Testing; 29th Edition. Clinical and Laboratory Standards Institute, Wayne, Pa.

[2] = system: carbapenem-resistant P. aeruginosa isolate PA20
Description: as §1, §2

[3] = system: carbapenem-resistant P. aeruginosa isolate PA21
Description: as §1, §2

[4] = system: carbapenem-resistant P. aeruginosa isolate PA22
Description: as §1, §2

[5] = system: carbapenem-resistant P. aeruginosa isolate PA23
Description: as §1, §2

[6] = system: carbapenem-resistant P. aeruginosa isolate PA24
Description: as §1, §2

[7] = system: carbapenem-resistant isolate WC-452
Description: as §1, §2

Compound	carbapenem susceptibility category, Alone [1]	carbapenem MIC, Combination ([1]; in combination with GN121) [mg/L]	carbapenem MIC, Combination ([1]; in combination with GN123) [mg/L]	carbapenem susceptibility category, Combination ([1]; in combination with GN123)	carbapenem susceptibility category, Alone [2]	carbapenem MIC, Combination ([2]; in combination with GN121) [mg/L]	carbapenem MIC, Combination ([2]; in combination with GN123) [mg/L]	carbapenem susceptibility category, Combination ([2]; in combination with GN123)	carbapenem susceptibility category, Alone [3]	carbapenem MIC, Combination ([3]; in combination with GN121) [mg/L]	carbapenem MIC, Combination ([3]; in combination with GN123) [mg/L]	carbapenem susceptibility category, Combination ([3]; in combination with GN123)	carbapenem susceptibility category, Alone [4]	carbapenem MIC, Combination ([4]; in combination with GN121) [mg/L]	carbapenem MIC, Combination ([4]; in combination with GN123) [mg/L]	carbapenem susceptibility category, Combination ([4]; in combination with GN123)	carbapenem susceptibility category, Alone [5]	carbapenem MIC, Combination ([5]; in combination with GN123) [mg/L]	carbapenem susceptibility category, Combination ([5]; in combination with GN123)	carbapenem susceptibility category, Alone [6]	also measured
C[C@@H](O)[C@H]1C(=O)N2C(C(=O)O)=C(SCCN=CN)C[C@H]12 [imipenem]	R ((R) = resistant)	1	0.5	S ((S) = sensitive)	R ((R) = resistant)	0.5	1	S ((S) = sensitive)	R ((R) = resistant)	1	0.5	S ((S) = sensitive)	R ((R) = resistant)	2	2	S ((S) = sensitive)	R ((R) = resistant)	0.25	S ((S) = sensitive)	R ((R) = resistant)	carbapenem susceptibility category, Combination ([1]; in combination with GN121): S ((S) = sensitive); carbapenem susceptibility category, Combination ([2]; in combination with GN121): S ((S) = sensitive); carbapenem susceptibility category, Combination ([3]; in combination with GN121): S ((S) = sensitive); carbapenem susceptibility category, Combination ([4]; in combination with GN121): S ((S) = sensitive); MIC, Alone ([5]; agent alone (carbapenem or lysin)): 16 mg/L; carbapenem susceptibility category, Combination ([5]; in combination with GN121): S ((S) = sensitive); carbapenem MIC, Combination ([6]; in combination with GN121): 1 mg/L; carbapenem susceptibility category, Combination ([6]; in combination with GN121): S ((S) = sensitive); carbapenem MIC, Combination ([6]; in combination with GN123): 2 mg/L; carbapenem susceptibility category, Combination ([6]; in combination with GN123): S ((S) = sensitive); carbapenem susceptibility category, Alone [7]: R ((R) = resistant); carbapenem MIC, Combination ([7]; in combination with GN123): 1 mg/L; carbapenem susceptibility category, Combination ([7]; in combination with GN123): S ((S) = sensitive)
C[C@@H](O)[C@H]1C(=O)N2C(C(=O)O)=C(S[C@@H]3CN[C@H](C(=O)N(C)C)C3)[C@H](C)[C@H]12 [MEROPENEM, meropenem]	R ((R) = resistant)	1	0.5	S ((S) = sensitive)	R ((R) = resistant)	1	0.5	S ((S) = sensitive)	R ((R) = resistant)	2	1	S ((S) = sensitive)	R ((R) = resistant)	1	1	S ((S) = sensitive)	R ((R) = resistant)	0.5	S ((S) = sensitive)	R ((R) = resistant)	carbapenem MIC, Combination ([5]; in combination with GN121): 2 mg/L; carbapenem MIC, Combination ([6]; in combination with GN121): 1 mg/L; carbapenem MIC, Combination ([6]; in combination with GN123): 2 mg/L; carbapenem susceptibility category, Combination ([6]; in combination with GN123): S ((S) = sensitive); carbapenem susceptibility category, Alone [7]: R ((R) = resistant); carbapenem MIC, Combination ([7]; in combination with GN121): 1 mg/L; carbapenem MIC, Combination ([7]; in combination with GN123): 1 mg/L; carbapenem susceptibility category, Combination ([7]; in combination with GN123): S ((S) = sensitive)
